Where two headings read alike, the source gives them in different places.
Columns and labels:
[1] = target: colchicine site of bovine brain tubulin; format: binding; conditions: tubulin binding constant, 25 °C
Protocol: Inhibition of this fluorescence increase was measured and converted to K d for the test compound as described.

bovine brain tubulin = assay: Tubulin polymerization inhibition; format: biochemical; conditions: 10 μM tubulin; for Polymerization Inhibition (%) 3.3 μM: 3.3 μM compound; for Polymerization Inhibition (%) 33 μM: 33 μM compound
Protocol: Inhibition of tubulin polymerization was determined as described previously. In brief, 10 μM bovine brain tubulin (PurSolutions, LLC (puresoluble.com)) was incubated under conditions strongly promoting polymerization of tubulin (1 M NaGlutamate, 0.1 M Mes (Morpholinoethanesulfonic acid), 1 mM MgCl2, 0.5 mM GTP, pH 6.9), in the absence or presence of 3.3 or 33 μM test compound, incubated for 30 min at 37 °C, then centrifuged at 100,000g for 8 min, and the top 3/4 of the supernatant removed. Protein concentration was measured, and polymerization was determined as pelletable protein lost from the supernatant.

A549 = assay: Cell-growth inhibition (CellTiter); format: cell-based, human; conditions: A549, 3 days; read-out: Cell Growth Inhibition GI50 ± SE
Protocol: (§1) Inhibition of cell growth was determined by using standard procedures. Cell lines were obtained from the NCI anticancer drug screen and maintained in DMEM medium supplemented with 10% fetal bovine serum. Growing cells were exposed to serial dilutions of each compound for 3 days. Cell growth was determined with CellTiter Assay Reagent (Promega), and growth parameters, including inhibition of growth, were measured by using the methods specified by the manufacturer.

M14 [2] = assay: Cell-growth inhibition (CellTiter); format: cell-based, human; conditions: M14, 3 days; read-out: Cell Growth Inhibition GI50 ± SE
Protocol: as §1

PC3 = assay: Cell-growth inhibition (CellTiter); format: cell-based, human; conditions: PC3, 3 days; read-out: Cell Growth Inhibition GI50 ± SE
Protocol: as §1

A549/ATCC = format: cell-based, human
Protocol: (§2) (aR)-6, (aS)-6, (aS)-iso -6, and (aR)-iso -6 were submitted to the 60 Cell Screen panel and evaluated at 5 doses (100 μM, 10 μM, 1 μM, 0.1 μM, and 0.01 μM). […] The complete report from this submission is available at the publisher’s Web site as a separate Supporting Information file. For COMPARE analysis, TGI levels of response for (aR)-DM-MTC (6) and (aS)-iso-DM-MTC were compared to those of several established tubulin inhibitors previously tested in the NCI-60 screen.

BT-549 = format: cell-based, human
Protocol: as §2

CAKI-1 = format: cell-based, human
Protocol: as §2

COLO 205 = format: cell-based, human
Protocol: as §2

EKVX = format: cell-based, human
Protocol: as §2

HCC-2998 = format: cell-based, human
Protocol: as §2

HCT-15 = format: cell-based, human
Protocol: as §2

HS 578T = format: cell-based, human
Protocol: as §2

IGROV1 = format: cell-based, human
Protocol: as §2

M14 [3] = format: cell-based, human
Protocol: as §2

MALME-3M = format: cell-based, human
Protocol: as §2

MDA-MB-435 = format: cell-based, human
Protocol: as §2

NCI-H226 = format: cell-based, human
Protocol: as §2

NCI-H460 = format: cell-based, human
Protocol: as §2

OVCAR-4 = format: cell-based, human
Protocol: as §2

SNB-75 = format: cell-based, human
Protocol: as §2

SR = format: cell-based, human
Protocol: as §2

SW-620 = format: cell-based, human
Protocol: as §2

UACC-62 = format: cell-based, human
Protocol: as §2

COc1cc(C)c(-c2ccc(=O)c(OC)cc2C)c(OC)c1OC (single isomer, unassigned) [(aR)-iso-6]
Kd [1]: nb | Polymerization Inhibition (%) 3.3 μM (bovine brain tubulin): 0% | Polymerization Inhibition (%) 33 μM (bovine brain tubulin): 0% | GI50 (A549): > 20 µM | GI50 (M14 [2]): > 20 µM | GI50 (PC3): > 20 µM | Log10GI50 (A549/ATCC): > -4.00 Molar | Log10LC50 (A549/ATCC): > -4.00 Molar | Log10TGI (A549/ATCC): > -4.00 Molar | Log10GI50 (BT-549): > -4.00 Molar | Log10LC50 (BT-549): > -4.00 Molar | Log10TGI (BT-549): > -4.00 Molar | Log10GI50 (CAKI-1): > -4.00 Molar | Log10LC50 (CAKI-1): > -4.00 Molar | Log10TGI (CAKI-1): > -4.00 Molar | Log10GI50 (COLO 205): > -4.00 Molar | Log10LC50 (COLO 205): > -4.00 Molar | Log10TGI (COLO 205): > -4.00 Molar | Log10GI50 (EKVX): > -4.00 Molar | Log10LC50 (EKVX): > -4.00 Molar | Log10TGI (EKVX): > -4.00 Molar | Log10GI50 (HCC-2998): > -4.00 Molar | Log10LC50 (HCC-2998): > -4.00 Molar | Log10TGI (HCC-2998): > -4.00 Molar | Log10GI50 (HCT-15): > -4.00 Molar | Log10LC50 (HCT-15): > -4.00 Molar | Log10TGI (HCT-15): > -4.00 Molar | Log10GI50 (HS 578T): > -4.00 Molar | Log10LC50 (HS 578T): > -4.00 Molar | Log10TGI (HS 578T): > -4.00 Molar | Log10GI50 (IGROV1): > -4.00 Molar | Log10LC50 (IGROV1): > -4.00 Molar | Log10TGI (IGROV1): > -4.00 Molar | Log10GI50 (M14 [3]): > -4.00 Molar | Log10LC50 (M14 [3]): > -4.00 Molar | Log10TGI (M14 [3]): > -4.00 Molar | Log10GI50 (MALME-3M): > -4.00 Molar | Log10LC50 (MALME-3M): > -4.00 Molar | Log10TGI (MALME-3M): > -4.00 Molar | Log10GI50 (MDA-MB-435): > -4.00 Molar | Log10LC50 (MDA-MB-435): > -4.00 Molar | Log10TGI (MDA-MB-435): > -4.00 Molar | Log10GI50 (NCI-H226): > -4.00 Molar | Log10LC50 (NCI-H226): > -4.00 Molar | Log10TGI (NCI-H226): > -4.00 Molar | Log10GI50 (NCI-H460): > -4.00 Molar | Log10LC50 (NCI-H460): > -4.00 Molar | Log10TGI (NCI-H460): > -4.00 Molar | Log10GI50 (OVCAR-4): > -4.00 Molar | Log10LC50 (OVCAR-4): > -4.00 Molar | Log10TGI (OVCAR-4): > -4.00 Molar | Log10GI50 (SNB-75): -4.40 Molar | Log10LC50 (SNB-75): > -4.00 Molar | Log10TGI (SNB-75): > -4.00 Molar | Log10GI50 (SR): > -4.00 Molar | Log10LC50 (SR): > -4.00 Molar | Log10TGI (SR): > -4.00 Molar | Log10GI50 (SW-620): > -4.00 Molar | Log10LC50 (SW-620): > -4.00 Molar | Log10TGI (SW-620): > -4.00 Molar | Log10GI50 (UACC-62): > -4.00 Molar | Log10LC50 (UACC-62): > -4.00 Molar | Log10TGI (UACC-62): > -4.00 Molar

COc1cc(C)c(-c2ccc(OC)c(=O)cc2C)c(OC)c1OC (single isomer, unassigned) [(aS)-6]
Kd ([1]; read-out: Kd): 230 µM | Polymerization Inhibition (%) 3.3 μM (bovine brain tubulin): 0% | Polymerization Inhibition (%) 33 μM (bovine brain tubulin): 0% | GI50 (A549): > 20 µM | GI50 (M14 [2]): > 20 µM | GI50 (PC3): > 20 µM | Log10GI50 (A549/ATCC): > -4.00 Molar | Log10LC50 (A549/ATCC): > -4.00 Molar | Log10TGI (A549/ATCC): > -4.00 Molar | Log10GI50 (BT-549): > -4.00 Molar | Log10LC50 (BT-549): > -4.00 Molar | Log10TGI (BT-549): > -4.00 Molar | Log10GI50 (CAKI-1): > -4.00 Molar | Log10LC50 (CAKI-1): > -4.00 Molar | Log10TGI (CAKI-1): > -4.00 Molar | Log10GI50 (COLO 205): > -4.00 Molar | Log10LC50 (COLO 205): > -4.00 Molar | Log10TGI (COLO 205): > -4.00 Molar | Log10GI50 (EKVX): > -4.00 Molar | Log10LC50 (EKVX): > -4.00 Molar | Log10TGI (EKVX): > -4.00 Molar | Log10GI50 (HCC-2998): > -4.00 Molar | Log10LC50 (HCC-2998): > -4.00 Molar | Log10TGI (HCC-2998): > -4.00 Molar | Log10GI50 (HCT-15): > -4.00 Molar | Log10LC50 (HCT-15): > -4.00 Molar | Log10TGI (HCT-15): > -4.00 Molar | Log10GI50 (HS 578T): > -4.00 Molar | Log10LC50 (HS 578T): > -4.00 Molar | Log10TGI (HS 578T): > -4.00 Molar | Log10GI50 (IGROV1): > -4.00 Molar | Log10LC50 (IGROV1): > -4.00 Molar | Log10TGI (IGROV1): > -4.00 Molar | Log10GI50 (M14 [3]): > -4.00 Molar | Log10LC50 (M14 [3]): > -4.00 Molar | Log10TGI (M14 [3]): > -4.00 Molar | Log10GI50 (MALME-3M): > -4.00 Molar | Log10LC50 (MALME-3M): > -4.00 Molar | Log10TGI (MALME-3M): > -4.00 Molar | Log10GI50 (MDA-MB-435): -4.14 Molar | Log10LC50 (MDA-MB-435): > -4.00 Molar | Log10TGI (MDA-MB-435): > -4.00 Molar | Log10GI50 (NCI-H226): > -4.00 Molar | Log10LC50 (NCI-H226): > -4.00 Molar | Log10TGI (NCI-H226): > -4.00 Molar | Log10GI50 (NCI-H460): > -4.00 Molar | Log10LC50 (NCI-H460): > -4.00 Molar | Log10TGI (NCI-H460): > -4.00 Molar | Log10GI50 (OVCAR-4): > -4.00 Molar | Log10LC50 (OVCAR-4): > -4.00 Molar | Log10TGI (OVCAR-4): > -4.00 Molar | Log10GI50 (SNB-75): > -4.00 Molar | Log10LC50 (SNB-75): > -4.00 Molar | Log10TGI (SNB-75): > -4.00 Molar | Log10GI50 (SR): > -4.00 Molar | Log10LC50 (SR): > -4.00 Molar | Log10TGI (SR): > -4.00 Molar | Log10GI50 (SW-620): > -4.00 Molar | Log10LC50 (SW-620): > -4.00 Molar | Log10TGI (SW-620): > -4.00 Molar | Log10GI50 (UACC-62): > -4.00 Molar | Log10LC50 (UACC-62): > -4.00 Molar | Log10TGI (UACC-62): > -4.00 Molar
